Assay results taken from ChEMBL document CHEMBL4229367, “Identification of multi-target inhibitors of leukotriene and prostaglandin E2 biosynthesis by structural tuning of the FLAP inhibitor BRP-7” (Eur J Med Chem, 2018).

What was measured:
[1] = target: T1, Arachidonate 5-lipoxygenase-activating protein (Homo sapiens) (UniProt P20292); assay: Inhibition of FLAP in A23187-stimulated human neutrophils assessed as remaining enzyme activity by measuring 5-LO product formation at 1 uM preincubated for 15 mins followed by A23187 and arachidonic acid addition and measured after 10 mins by UV based RP-HPLC analysis (reference value: 100%)
T1 sequence (whole entry): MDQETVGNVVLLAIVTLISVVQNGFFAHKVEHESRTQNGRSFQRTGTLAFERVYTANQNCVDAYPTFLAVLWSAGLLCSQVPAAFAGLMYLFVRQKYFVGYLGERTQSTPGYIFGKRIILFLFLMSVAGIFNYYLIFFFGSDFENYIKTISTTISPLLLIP

[2] = target: T2, Arachidonate 5-lipoxygenase-activating protein (Homo sapiens, UniProt P20292); assay: Inhibition of FLAP in A23187-stimulated human neutrophils assessed as reduction in 5-LO product formation preincubated for 15 mins followed by A23187 and arachidonic acid addition and measured after 10 mins by UV based RP-HPLC analysis
T2 sequence (P20292 whole entry): T1 sequence (whole entry)

[3] = target: T1, Arachidonate 5-lipoxygenase-activating protein (Homo sapiens); assay: Inhibition of FLAP in A23187-stimulated human neutrophils assessed as remaining enzyme activity by measuring 5-LO product formation at 0.1 uM preincubated for 15 mins followed by A23187 and arachidonic acid addition and measured after 10 mins by UV based RP-HPLC analysis (reference value: 100%)
[4] = target: T3, Prostaglandin E synthase (Homo sapiens) (UniProt O14684); assay: Inhibition of mPGES1 in IL-1beta-stimulated human A549 cell microsomal fractions assessed as reduction in PGE2 production at 3 uM preincubated for 15 mins followed by PGH2 substrate addition and measured after 1 min by RP-HPLC analysis relative to control
T3 sequence (whole entry): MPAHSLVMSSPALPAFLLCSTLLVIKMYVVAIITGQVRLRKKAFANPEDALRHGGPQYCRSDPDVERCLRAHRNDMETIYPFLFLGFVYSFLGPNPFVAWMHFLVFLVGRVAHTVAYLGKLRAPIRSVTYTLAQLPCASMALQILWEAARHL

[5] = target: T1, Arachidonate 5-lipoxygenase-activating protein (Homo sapiens); assay: Inhibition of FLAP in A23187-stimulated human neutrophils assessed as remaining enzyme activity by measuring 5-LO product formation at 10 uM preincubated for 15 mins followed by A23187 and arachidonic acid addition and measured after 10 mins by UV based RP-HPLC analysis (reference value: 100%)
[6] = target: T4, Polyunsaturated fatty acid 5-lipoxygenase (Homo sapiens, UniProt P09917); assay: Inhibition of recombinant human 5-LO expressed in Escherichia coli BL21 incubated for 15 mins prior to prewarming for 30 secs followed by CaCl2+ and arachidonic acid addition and measured after 10 mins by RP-HPLC analysis
T4 sequence (P09917 whole entry): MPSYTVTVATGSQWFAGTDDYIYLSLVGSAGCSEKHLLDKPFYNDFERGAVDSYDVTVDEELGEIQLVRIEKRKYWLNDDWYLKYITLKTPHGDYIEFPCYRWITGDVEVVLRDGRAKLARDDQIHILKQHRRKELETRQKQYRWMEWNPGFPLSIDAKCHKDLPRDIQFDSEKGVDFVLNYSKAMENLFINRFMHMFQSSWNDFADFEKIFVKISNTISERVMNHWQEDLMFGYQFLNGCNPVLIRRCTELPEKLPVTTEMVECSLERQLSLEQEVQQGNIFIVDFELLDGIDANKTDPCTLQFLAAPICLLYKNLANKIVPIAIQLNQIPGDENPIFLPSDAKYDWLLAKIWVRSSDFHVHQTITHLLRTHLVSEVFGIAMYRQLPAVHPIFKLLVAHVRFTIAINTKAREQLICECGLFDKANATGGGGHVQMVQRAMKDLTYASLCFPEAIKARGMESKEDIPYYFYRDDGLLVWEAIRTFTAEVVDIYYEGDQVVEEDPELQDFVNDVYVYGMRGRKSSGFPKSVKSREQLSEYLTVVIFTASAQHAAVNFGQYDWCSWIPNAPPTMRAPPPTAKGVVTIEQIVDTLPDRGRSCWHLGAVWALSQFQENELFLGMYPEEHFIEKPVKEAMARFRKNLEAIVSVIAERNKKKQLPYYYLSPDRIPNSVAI

[7] = target: T5, Polyunsaturated fatty acid 5-lipoxygenase (Homo sapiens) (UniProt P09917); details: 0.3 uM
T5 sequence (whole entry): T4 sequence (P09917 whole entry)
Description: Inhibition of recombinant human 5-LO expressed in Escherichia coli BL21 at 0.3 uM incubated for 15 mins prior to prewarming for 30 secs followed by CaCl2+ and arachidonic acid addition and measured after 10 mins by RP-HPLC analysis

Leukotriene C4 synthase = target: T6, Leukotriene C4 synthase (Homo sapiens, UniProt Q16873); assay: Inhibition of human LTC4 synthase expressed in HEK293 cell microsomes preincubated for 10 mins followed by LTA4-methyl ester addition and measured after 10 mins by UPLC-MS/MS analysis
T6 sequence (Q16873 whole entry): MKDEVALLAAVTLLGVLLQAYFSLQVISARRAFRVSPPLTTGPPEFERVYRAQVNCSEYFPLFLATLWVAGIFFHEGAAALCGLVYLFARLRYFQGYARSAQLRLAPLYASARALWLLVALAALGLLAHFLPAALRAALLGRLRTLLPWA

[8] = target: T3, Prostaglandin E synthase (Homo sapiens); assay: (§1) Inhibition of mPGES1 in IL-1beta-stimulated human A549 cell microsomal fractions assessed as reduction in PGE2 production preincubated for 15 mins followed by PGH2 substrate addition and measured after 1 min by RP-HPLC analysis relative to control
Prostaglandin E synthase = target: T7, Prostaglandin E synthase (Homo sapiens, UniProt O14684); assay: as §1
T7 sequence (O14684 whole entry): T3 sequence (whole entry)

[9] = target: T1, Arachidonate 5-lipoxygenase-activating protein (Homo sapiens); assay: Inhibition of FLAP in A23187-stimulated human neutrophils assessed as reduction in 5-LO product formation at 1 uM preincubated for 15 mins followed by A23187 and arachidonic acid addition and measured after 10 mins by UV based RP-HPLC analysis

Row | SMILES | Activity [1] [%] | IC50 [2] [µM] | Activity [3] [%] | inhibition [4] [%] | further results
1 | CC(C)Cc1ccc(C(C)c2nc3cc(-c4ccccc4C(=O)O)ccc3n2Cc2ccccc2Cl)cc1 (stereo unspecified) | 65 | 1.1 | 104 | > 50 | –
2 | N#Cc1ccc2c(c1)nc(NCc1ccc3cc[nH]c3c1)n2Cc1ccccc1Cl | 98.5 | > 10 | 93.6 | – | Activity [5]: 84%
3 | CCC(C)c1ccc(C(C)c2nc3cc(C#N)ccc3n2Cc2ccccc2Cl)cc1 (stereo unspecified) | 33.6 | 0.7 | 92.1 | – | –
4 | CC(C)Cc1ccc(C(C)c2nc3cc(C(N)=O)ccc3n2Cc2ccccc2Cl)cc1 (stereo unspecified) | 0 | 0.13 | 64 | – | –
5 | CC(C)c1ccc2c(c1)c(SC(C)(C)C)c(CC(C)(C)C(=O)O)n2Cc1ccc(Cl)cc1 | – | – | – | – | IC50 [6]: 3 µM
6 | CC(C)CCc1ccc(C(C)c2nc3cc(C#N)ccc3n2Cc2ccccc2Cl)cc1 (stereo unspecified) | 87.2 | 18 | 118 | – | Activity [5]: 66%
7 | CC(=O)N(O)C/C=C/c1cccc(Oc2ccccc2)c1 | – | – | – | – | inhibition [7]: > 70%
8 | N#Cc1ccc2c(c1)nc(CCc1ccc(-c3ccc(N)nc3)cc1)n2Cc1ccccc1Cl | 1.4 | 0.25 | 76.1 | – | –
9 | Cc1nc(-c2ccc3c(c2)nc(C(C)c2ccc(CC(C)C)cc2)n3Cc2ccccc2Cl)no1 (stereo unspecified) | 1.9 | 0.18 | 79 | – | –
10 | CC(C)Cc1ccc(C(C)c2nc3cc(-c4nnco4)ccc3n2Cc2ccccc2Cl)cc1 (stereo unspecified) | 0.45 | 0.09 | 63.1 | < 50 | –
11 | N#Cc1ccc2c(c1)nc(CCc1ccc(-c3cnc(N)cn3)cc1)n2Cc1ccccc1Cl | 3.5 | 0.26 | 72.7 | – | –
12 | N#Cc1ccc2c(c1)nc(CCc1ccc(-c3ccc(N)nn3)cc1)n2Cc1ccccc1Cl | 25.6 | 0.66 | 85.6 | – | –
13 | CC(C)Cc1ccc(C(C)c2nc3c(C(=O)O)cccc3n2Cc2ccccc2Cl)cc1 (stereo unspecified) | 85 | 0.4 | 85 | – | –
14 | CC(C)Cc1ccc(C(C)c2nc3cc(-c4n[nH]c(=S)o4)ccc3n2Cc2ccccc2Cl)cc1 (stereo unspecified) | 0 | 0.05 | 41.4 | > 50 | IC50 [6]: 0.6 µM; IC50 (Leukotriene C4 synthase): 6.19 µM; inhibition [8]: Dose-dependent effect; IC50 (Prostaglandin E synthase): 0.42 µM
15 | CC(C)Cc1ccc(C(C)c2nc3cc(-c4ccc(C(=O)O)cc4)ccc3n2Cc2ccccc2Cl)cc1 (stereo unspecified) | 0 | 0.04 | 3.73 | > 50 | IC50 [6]: 3.2 µM; IC50 (Leukotriene C4 synthase): 15.9 µM; inhibition [8]: Dose-dependent effect; IC50 (Prostaglandin E synthase): 2.1 µM
16 | CC(C)Cc1ccc(C(C)c2nc3cc(C(=O)O)ccc3n2Cc2ccccc2Cl)cc1 (stereo unspecified) | 0 | 0.28 | 71.1 | > 50 | –
17 | N#Cc1ccc2c(c1)nc(NCc1ccc3[nH]ccc3c1)n2Cc1ccccc1Cl | 84.7 | 3.8 | 92.3 | – | Activity [5]: 44%
18 | CC(C)Cc1ccc(C(C)c2nc3cc(-c4n[nH]c(=O)o4)ccc3n2Cc2ccccc2Cl)cc1 (stereo unspecified) | 0.5 | 0.1 | 40.5 | – | –
19 | CC(C)Cc1ccc(C(C)c2nc3cc(CC(=O)O)ccc3n2Cc2ccccc2Cl)cc1 (stereo unspecified) | 16.1 | 0.45 | 91.4 | > 50 | –
20 | CC(C)Cc1ccc(C(C)c2nc3cc(C(N)=S)ccc3n2Cc2ccccc2Cl)cc1 (stereo unspecified) | 0.45 | 0.16 | 63.1 | – | –
21 | CC(C)Cc1ccc(C(C)c2nc3c(CC(=O)O)cccc3n2Cc2ccccc2Cl)cc1 (stereo unspecified) | 49.3 | > 1 | 99.3 | > 50 | inhibition [9]: 50%
22 | CC(C)Cc1ccc(C(C)c2nc3cc(-c4nnn[nH]4)ccc3n2Cc2ccccc2Cl)cc1 (stereo unspecified) | 0 | 0.32 | 90.2 | > 50 | –
23 | CC(C)Oc1ccc(-c2nc3cc(C#N)ccc3n2Cc2ccccc2Cl)cc1 | 68.4 | – | 93.7 | – | –
24 | CC(C)Cc1ccc(C(C)c2nc3cc(C#N)ccc3n2Cc2ccccc2Cl)cc1 (stereo unspecified) | – | – | – | > 50 | –

More lines, main results first:

Row | Activity [1] [%] | IC50 [2] [µM] | Activity [3] [%] | inhibition [4] [%] | SMILES | further results
25 | 99.2 | 8.8 | 97.1 | – | N#Cc1ccc2c(c1)nc(NCCc1c[nH]c3ccccc13)n2Cc1ccccc1Cl | Activity [5]: 63%
26 | 0.67 | 0.27 | 87.6 | > 50 | CC(C)Cc1ccc(C(C)c2nc3cc(-c4noc(=O)[nH]4)ccc3n2Cc2ccccc2Cl)cc1 (stereo unspecified) | –
27 | 16.8 | 0.28 | 77.8 | > 50 | CC(C)Cc1ccc(C(C)c2nc3cc(S(N)(=O)=O)ccc3n2Cc2ccccc2Cl)cc1 (stereo unspecified) | –
28 | 1 | 0.19 | 85 | > 50 | CC(C)Cc1ccc(C(C)c2nc3c(CCC(=O)O)cccc3n2Cc2ccccc2Cl)cc1 (stereo unspecified) | –
29 | 1.06 | 0.15 | 72.7 | > 50 | CC(C)Cc1ccc(C(C)c2nc3cc(-c4nc(C(=O)O)cs4)ccc3n2Cc2ccccc2Cl)cc1 (stereo unspecified) | –
30 | 5.47 | 0.2 | 75.9 | > 50 | CC(C)Cc1ccc(C(C)c2nc3cc(OC(C)(C)C(=O)O)ccc3n2Cc2ccccc2Cl)cc1 (stereo unspecified) | –
31 | 4.2 | 0.42 | 84.1 | < 50 | CC(Cc1ccc(-c2cnc(N)nc2)cc1)c1nc2cc(C#N)ccc2n1Cc1ccccc1Cl (stereo unspecified) | –
32 | 51.5 | 1.7 | 117 | – | CC(c1ccc(CC(C)(C)C)cc1)c1nc2cc(C#N)ccc2n1Cc1ccccc1Cl (stereo unspecified) | –
33 | – | 0.37 | – | – | C=C(Cc1ccc(-c2cnc(N)nc2)cc1)c1nc2cc(C#N)ccc2n1Cc1ccccc1Cl | –
34 | 6.38 | 0.18 | 67.3 | > 50 | CC(C)Cc1ccc(C(C)c2nc3cc(OCC(=O)O)ccc3n2Cc2ccccc2Cl)cc1 (stereo unspecified) | –
35 | 8.3 | 0.37 | 85.5 | < 50 | N#Cc1ccc2c(c1)nc(CCc1ccc(-c3cnc(N)nc3)cc1)n2Cc1ccccc1Cl | –
36 | 74.3 | – | 93 | – | CC(C)Cc1ccc(-c2nc3cc(C#N)ccc3n2Cc2ccccc2Cl)cc1 | –
37 | 0 | 0.074 | 33 | > 50 | CC(C)Cc1ccc(C(C)c2nc3cc(-c4cccc(C(=O)O)c4)ccc3n2Cc2ccccc2Cl)cc1 (stereo unspecified) | –
